In brackets after ≈: the same amount, converted by molar mass.
Columns and labels:
[1] = test system: Mycobacterium tuberculosis; test: Antimycobacterial activity against Mycobacterium tuberculosis after 5 days by turbidity assay; format: functional; settings: 120 h
[2] = test system: Mycobacterium tuberculosis; test: Antimycobacterial activity against Mycobacterium tuberculosis H37Rv after overnight incubation by REMA method; format: functional
[3] = target: T1, Decaprenylphosphoryl-beta-D-ribose oxidase (Mycobacterium tuberculosis (strain ATCC 25618 / H37Rv)) (UniProt P9WJF1); test: Inhibition of GFP-fused Mycobacterium tuberculosis H37Rv DprE1 after 72 hrs by fluorescence assay
T1 sequence (whole entry): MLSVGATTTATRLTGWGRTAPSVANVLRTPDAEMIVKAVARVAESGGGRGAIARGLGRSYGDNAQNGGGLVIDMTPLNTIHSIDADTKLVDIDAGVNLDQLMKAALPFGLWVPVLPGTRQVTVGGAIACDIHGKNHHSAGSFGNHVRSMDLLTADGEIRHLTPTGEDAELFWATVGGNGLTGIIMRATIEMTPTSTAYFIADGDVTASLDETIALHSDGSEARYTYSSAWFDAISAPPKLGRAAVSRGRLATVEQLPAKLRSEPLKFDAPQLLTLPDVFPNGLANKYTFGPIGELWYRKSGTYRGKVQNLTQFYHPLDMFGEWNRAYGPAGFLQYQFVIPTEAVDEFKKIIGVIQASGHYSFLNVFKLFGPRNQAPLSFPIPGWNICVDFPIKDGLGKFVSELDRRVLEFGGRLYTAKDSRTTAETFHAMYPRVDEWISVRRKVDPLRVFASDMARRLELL

[4] = test system: Mycobacterium tuberculosis; test: Antimycobacterial activity against GFP-fused Mycobacterium tuberculosis H37Rv after 7 days by fluorescence assay; format: functional; settings: 168 h
[5] = target: T2, Decaprenylphosphoryl-beta-D-ribose oxidase (Mycobacterium tuberculosis (strain ATCC 25618 / H37Rv), UniProt P9WJF1); test: Inhibition of Mycobacterium tuberculosis H37Rv DprE1
T2 sequence (P9WJF1 whole entry): T1 sequence (whole entry)

[6] = test system: Mycobacterium tuberculosis; test: Antimycobacterial activity against GFP-fused Mycobacterium tuberculosis H37Rv by resazurin dye-based micro-broth dilution method; format: functional
[7] = test system: Mycobacterium tuberculosis; test: Bactericidal activity against recombinant GFP-fused Mycobacterium tuberculosis H37Rv by resazurin dye-based assay; format: functional
[8] = test system: Mycobacterium tuberculosis; test: Antimycobacterial activity against recombinant GFP-fused Mycobacterium tuberculosis H37Rv after 10 days by resazurin dye-based assay; format: functional; settings: 240 h
[9] = test system: Mycobacterium tuberculosis; test: Antimycobacterial activity against Mycobacterium tuberculosis H37Rv after 24 hrs by REMA method; format: functional
[10] = target: T1, Decaprenylphosphoryl-beta-D-ribose oxidase (Mycobacterium tuberculosis (strain ATCC 25618 / H37Rv)); test: Inhibition of Mycobacterium tuberculosis H37Rv DprE1 at 50 uM relative to control
[11] = test system: Mycobacterium tuberculosis; test: Antimycobacterial activity against Mycobacterium tuberculosis H37Rv infected in C57BL/6 mouse primary macrophages assessed as reduction in colony forming unit at 5 uM after 2 hrs followed by compound wash out and measured after 7 days by serial dilution method relative to control; format: functional
[12] = test system: Mycobacterium tuberculosis; test: Antimycobacterial activity against Mycobacterium tuberculosis H37Rv infected in human primary macrophages assessed as reduction in colony forming unit at 5 uM after 2 hrs followed by compound wash out and measured after 7 days by serial dilution method relative to control; format: functional
[13] = Inhibition of Mycobacterium tuberculosis DprE1 using FPR as substrate by resazurin dye-based fluorescence assay
[14] = Binding affinity to Mycobacterium tuberculosis DprE1
[15] = target: T2, Decaprenylphosphoryl-beta-D-ribose oxidase; test: Inhibition of N-terminal His6-thioredoxin tagged Mycobacterium tuberculosis H37Rv DprE1 expressed in Escherichia coli BL21(DE3) using FPR as substrate by resazurin dye-based fluorescence assay
Cytochrome P450 2C9 = Cytochrome P450 2C9 (Homo sapiens, UniProt P11712); test: Inhibition of CYP2C9 in human liver microsomes using diclofenac as substrate after 30 mins by in presence of NADPH by LC-MS/MS analysis; format: ADME
[16] = test system: Mycobacterium tuberculosis; test: Antimycobacterial activity against Mycobacterium tuberculosis in 7H9 medium; format: functional, organism-based
[17] = test system: Mycobacterium tuberculosis; test: Antimycobacterial activity against Mycobacterium tuberculosis in biofilm medium; format: functional, organism-based
[18] = target: T2, Decaprenylphosphoryl-beta-D-ribose oxidase; test: Inhibition of Mycobacterium tuberculosis H37Rv DprE1 using FPR as substrate preincubated for 6.5 hrs followed by substrate addition by resazurin dye-based spectrofluorimetric analysis
[19] = target: T1, Decaprenylphosphoryl-beta-D-ribose oxidase (Mycobacterium tuberculosis (strain ATCC 25618 / H37Rv)); test: Ratio of IC50 for inhibition of Mycobacterium tuberculosis H37Rv DprE1 using FPR as substrate in presence of SAM by resazurin dye-based spectrofluorimetric analysis to IC50 for inhibition of Mycobacterium tuberculosis H37Rv DprE1 using FPR as substrate in absence of SAM by resazurin dye-based spectrofluorimetric analysis

Chain of Cytochrome P450 2C9 (P11712 whole entry): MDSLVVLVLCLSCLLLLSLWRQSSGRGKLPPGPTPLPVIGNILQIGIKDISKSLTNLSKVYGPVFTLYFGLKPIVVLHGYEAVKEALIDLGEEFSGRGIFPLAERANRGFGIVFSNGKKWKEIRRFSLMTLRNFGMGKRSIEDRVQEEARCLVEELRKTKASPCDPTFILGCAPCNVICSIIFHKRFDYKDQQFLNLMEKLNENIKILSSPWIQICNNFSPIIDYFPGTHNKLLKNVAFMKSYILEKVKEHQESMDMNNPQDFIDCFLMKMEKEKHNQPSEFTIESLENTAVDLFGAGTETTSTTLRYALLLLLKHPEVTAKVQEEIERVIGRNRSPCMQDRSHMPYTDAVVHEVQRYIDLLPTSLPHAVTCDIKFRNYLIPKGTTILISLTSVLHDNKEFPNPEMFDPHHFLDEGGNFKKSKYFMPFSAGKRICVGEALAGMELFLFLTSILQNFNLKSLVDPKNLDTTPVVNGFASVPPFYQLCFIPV

## Cc1ccc(C(F)(F)F)cc1CNCc1cc2c(C(C)C)nn(-c3ccccc3)c2[nH]c1=O
[1]
  MIC: 0.4 µM (≈ 0.182 µg/mL)

## Cc1nc2c([N+](=O)[O-])cc(C(F)(F)F)cc2nc1-c1ccccc1
[2]
  MIC: 6.25 µM (≈ 2.08 µg/mL)

## CC(C)(C)c1ccc(Cn2cnc([N+](=O)[O-])n2)cc1
[3]
  IC90: 500 nM

## Cc1nc2cc(Br)cc([N+](=O)[O-])c2nc1-c1ccccc1
[2]
  MIC: 3.1 µM (≈ 1.07 µg/mL)

## O=C(NCCOCc1cccc(Cl)c1)c1cc(NO)cc([N+](=O)[O-])c1
[4]
  MIC: > 20 µM

## Cc1nc2cc(C(F)(F)F)cc([N+](=O)[O-])c2nc1-c1ccccc1
[2]
  MIC: 0.75 µM (≈ 0.25 µg/mL)

## Nc1cc(C(=O)NCCOCc2cccc(Cl)c2)cc([N+](=O)[O-])c1
[4]
  MIC: > 20 µM

## O=C(NCCOCc1cccc(Cl)c1)c1cc([N+](=O)[O-])cc([N+](=O)[O-])c1
[4]
  MIC: 1 µM (≈ 0.38 µg/mL)

## O=C(O)c1nc2ccc(C(F)(F)F)cc2nc1NCc1ccc(F)cc1
[5]
  IC50: 72 nM
[2]
  MIC99: 12.5 µM (≈ 4.57 µg/mL)

## O=C(O)c1nc2ccc(C(F)(F)F)cc2nc1NCc1ccc(Cl)cc1
[5]
  IC50: 50 nM
[2]
  MIC99: 3.1 µM (≈ 1.18 µg/mL)

## C[C@H]1COC2(CCN(c3nc(=O)c4cc(C(F)(F)F)cc([N+](=O)[O-])c4s3)CC2)O1 [BTZ-043]
[6]
  MIC: 0.001 µg/mL (≈ 0.00232 µM)

## CCc1nc2cc(Cl)ccn2c1C(=O)NCc1ccc(N2CCN(c3ccc(F)cc3)CC2)cc1
[5]
  IC50: > 10000 nM
[7]
  MBC: > 200 µM
[8]
  MIC: 0.017 µM

## C[C@H]1COC2(CCN(c3nc(=O)c4cc(C(F)(F)F)cc(-n5cccc5)c4s3)CC2)O1
[9]
  MIC: 0.16 µg/mL (≈ 0.354 µM)

## O=C(NCCOCc1cccc(Cl)c1)c1cccc([N+](=O)[O-])c1
[4]
  MIC: > 20 µM

## Cc1ccc(C(F)(F)F)cc1CNCc1cc2c(C)nn(-c3ccccc3)c2[nH]c1=O
[1]
  MIC: 0.8 µM (≈ 0.341 µg/mL)

## CCOC(=O)c1nc2ccc(C(F)(F)F)cc2nc1NCc1ccc(OC)cc1
[2]
  MIC99: 3.1 µM (≈ 1.26 µg/mL)
[10]
  inhibition: 54%

## O=C(NCCOCc1cccc(C(F)(F)F)c1)c1cc([N+](=O)[O-])cc([N+](=O)[O-])c1
[4]
  MIC: 0.2 µM (≈ 0.0827 µg/mL)

## NNC(=O)c1ccncc1 [ISONIAZID]
[6]
  MIC: 20 to 200 µg/mL (≈ 146 to 1460 µM)

## N#Cc1ccc(CNc2nc3cc(C(F)(F)F)ccc3nc2C(=O)O)cc1
[5]
  IC50: 67 nM
[2]
  MIC99: 50 µM (≈ 18.6 µg/mL)

## O=C(NCCOCc1ccccc1)c1cc([N+](=O)[O-])cc([N+](=O)[O-])c1
[4]
  MIC: 0.2 µM (≈ 0.0691 µg/mL)

## CCOc1ccc(CNc2nc3cc(C(F)(F)F)ccc3nc2C(=O)O)cc1
[5]
  IC50: 88 nM
[2]
  MIC99: 3.1 µM (≈ 1.21 µg/mL)

## O=C(O)c1nc2ccc(C(F)(F)F)cc2nc1NCc1ccc(C(F)(F)F)cc1
[5]
  IC50: 120 nM
[2]
  MIC99: 6.3 µM (≈ 2.62 µg/mL)

## COc1ccc(OCCNC(=O)c2cc([N+](=O)[O-])cc([N+](=O)[O-])c2)cc1
[11]
  fold change (FC): 10
[4]
  MIC: 0.2 µM (≈ 0.0723 µg/mL)
[12]
  fold change (FC): 10

## CCCCN1CCN(c2nc(=O)c3cc(C(F)(F)F)cc(-n4cccc4)c3s2)CC1
[9]
  MIC: 0.62 µg/mL (≈ 1.42 µM)

## O=c1nc(N2CCN(CC3CCCCC3)CC2)sc2c(-n3cccc3)cc(C(F)(F)F)cc12
[9]
  MIC: 0.16 µg/mL (≈ 0.336 µM)

## COC(=O)c1ccc(O[C@H]2CCN(C(=O)c3cc([N+](=O)[O-])cc([N+](=O)[O-])c3)C2)cc1
[4]
  MIC: > 20 µM

## O=C(C1CCN(c2nnc(-n3cccc3)s2)CC1)N1CCC(Cc2ccccc2)CC1
[13]
  IC50: 54 nM
[14]
  Kd: 250 nM

## CCOC(=O)NC(=O)c1ccsc1NC(=O)c1ccn2cnnc2c1
[15]
  IC50: 60 nM

## Cc1ccnc(NC(=O)c2ccsc2NC(=O)c2ccn3cnnc3c2)n1
Cytochrome P450 2C9
  IC50: > 50000 nM
[15]
  IC50: 30 nM

## COc1ccc(CNc2nc3cc(C(F)(F)F)ccc3nc2C(=O)O)cc1F
[5]
  IC50: 80 nM
[2]
  MIC99: 6.3 to 12.5 µM (≈ 2.49 to 4.94 µg/mL)

## CCOC(=O)NC(=O)c1ccsc1NC(=O)c1nc2ccccc2s1
[16]
  IC50: 0.19 µg/mL (≈ 0.506 µM)
[17]
  IC50: 0.01 µg/mL (≈ 0.0266 µM)

## O=C(NCCOc1ccccc1F)c1cc([N+](=O)[O-])cc([N+](=O)[O-])c1
[4]
  MIC: 0.7 µM (≈ 0.244 µg/mL)

## Cc1c(CCC(=O)N2CCCC2)c(=O)n2c([nH]c3ccccc32)c1C#N
[18]
  IC50: 70 nM
[19]
  Ratio IC50: 36

## COc1ccc(O[C@H]2CCN(C(=O)c3cc([N+](=O)[O-])cc([N+](=O)[O-])c3)C2)cc1
[4]
  MIC: 20 µM (≈ 7.75 µg/mL)

## COc1ccc(O[C@H]2CCCN(C(=O)c3cc([N+](=O)[O-])cc([N+](=O)[O-])c3)C2)cc1
[4]
  MIC: 20 µM (≈ 8.03 µg/mL)

## Cc1ccc(C)n1-c1cc(C(F)(F)F)cc2c(=O)nc(N3CCC4(CC3)OC[C@H](C)O4)sc12
[9]
  MIC: 2.5 µg/mL (≈ 5.21 µM)

## O=C(NCCOCc1ccccc1F)c1cc([N+](=O)[O-])cc([N+](=O)[O-])c1
[4]
  MIC: 0.08 µM (≈ 0.0291 µg/mL)

## CC[C@@H](CO)NCCN[C@@H](CC)CO [ETHAMBUTOL]
[6]
  MIC: 1000 to 5000 µg/mL (≈ 4890 to 24500 µM)

## COc1ccc(CNc2nc3cc(C(F)(F)F)ccc3nc2C(=O)O)cc1
[5]
  IC50: 41 nM
[2]
  MIC99: 3.1 µM (≈ 1.17 µg/mL)

## Cc1ccc(C(F)(F)F)cc1CNCc1cc2c(C3CC3)nn(-c3ccccc3)c2[nH]c1=O
[1]
  MIC: 0.1 µM (≈ 0.0452 µg/mL)

— ChEMBL document CHEMBL4371005, “Overview of the Development of DprE1 Inhibitors for Combating the Menace of Tuberculosis” (J Med Chem, 2018)
